Numbering of substitutions follows the chain as printed.
What was measured:
[1] = molecular target: I. scapularis octβ2R (is-octβ2R) (Ixodes scapularis, UniProt A0ACM8E5E8); assay: cell-based; format: cell-based; conditions: for Emax: AP-TGFα release
Procedure: (§1) The TGFα shedding assay was performed as previously described ([28]). […] The cells were transfected using lipofectamine 2000 with plasmids encoding alkaline phosphatase–tagged TGFα (AP-TGFα) (2.5 ng/mL), is-octβ2Rs (1 ng/mL), and Gαq/s (0.5 ng/mL). After 24 h, the cells were washed with phosphate-buffered saline and resuspended in Hank's balanced salt solution (HBSS) (supplemented with 5 mM HEPES [pH 7.4]). The cells (90 μL/well) were plated in a 96-well plate and incubated with 10 μL of HBSS solution containing various concentrations of compounds for 1 h at 37 °C. Following centrifugation (200 × g, 2 min), 80 μL of the supernatant was transferred to a separate 96-well plate. Subsequently, 80 µL of 2× para-nitrophenyl phosphate (pNPP) buffer (containing 10 mM pNPP in 40 mM Tris–HCl [pH 9.5], 40 mM NaCl, and 10 mM MgCl2) was added to both the supernatant and cell-containing plates. The optical density at 405 nm of both plates was measured before and after a 1 h incubation at room temperature using a microplate reader (SpectraMax iD3, Molecular Devices, San Jose, CA, United States). AP-TGFα release was calculated using the following formulas:
(§2) ΔOD405=OD450(1h)−OD405(0h)AP−TGFαinsupernatant(%)=(ΔOD405Sup/[ΔOD450Sup+ΔOD405Cell])×125AP−TGFαrelease(%)=AP−TGFαinsupernatantunderastimulatedcondition(%)−AP−TGFαinsupernatantunderavehicle−treatedcondition
(§3) where OD405 (0 h) and […] represent the OD405 before and after a 1 h incubation, respectively, and OD405Sup and OD405Cell represent the OD405 of supernatant and cell plates, respectively. For all pharmacological analyses, nonlinear regression curve fitting was performed with a 3-parameter sigmoid model (Hill coefficient = 1) using Prism 8 (GraphPad Software, La Jolla, CA, United States).

[2] = molecular target: T1, is-octβ2R T60^1.41P mutant (Ixodes scapularis, UniProt A0ACM8E5E8); assay: TGFα shedding assay, amitraz-resistant mutant T60^1.41P; format: cell-based; conditions: Table S4
T1 sequence (A0ACM8E5E8 1-384 T39P): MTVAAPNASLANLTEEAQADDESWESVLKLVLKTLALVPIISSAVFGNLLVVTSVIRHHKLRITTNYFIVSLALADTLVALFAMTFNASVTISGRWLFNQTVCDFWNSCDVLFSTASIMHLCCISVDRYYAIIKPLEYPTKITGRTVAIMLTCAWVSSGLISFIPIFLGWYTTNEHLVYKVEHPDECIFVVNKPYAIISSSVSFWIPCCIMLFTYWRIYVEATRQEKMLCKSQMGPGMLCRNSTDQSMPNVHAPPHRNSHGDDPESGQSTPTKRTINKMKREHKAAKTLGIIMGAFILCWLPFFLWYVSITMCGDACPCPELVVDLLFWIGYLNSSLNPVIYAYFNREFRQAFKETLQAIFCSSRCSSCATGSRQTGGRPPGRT
Procedure: as §1, §2, §3

[3] = molecular target: T2, is-octβ2R I61^1.42F mutant (Ixodes scapularis, UniProt A0ACM8E5E8, I40F); assay: TGFα shedding assay, amitraz-resistant mutant I61^1.42F; format: cell-based; conditions: Table S4
T2 sequence (A0ACM8E5E8 1-384 I40F): T1 sequence (A0ACM8E5E8 1-384 T39P) with P39T, I40F
Procedure: as §1, §2, §3

[4] = molecular target: T3, is-octβ2R Y215^5.58H mutant (Ixodes scapularis, UniProt A0ACM8E5E8, Y215H); assay: TGFα shedding assay, amitraz-resistant mutant Y215^5.58H; format: cell-based
T3 sequence (A0ACM8E5E8 1-384 Y215H): T1 sequence (A0ACM8E5E8 1-384 T39P) with P39T, Y215H
Procedure: as §1, §2, §3

[5] = system: is-octβ2R Y215^5.58H mutant; assay: as above; format: cell-based, Ixodes scapularis; conditions: versus wild type
Procedure: as §1, §2, §3

[6] = system: is-octβ2R D110^3.32N mutant; assay: TGFα shedding assay, mutant D110^3.32N; format: cell-based, Ixodes scapularis; conditions: Table S6
Procedure: as §1
(§4) ΔOD405=OD450(1h)−OD405(0h)AP−TGFαinsupernatant(%)=(ΔOD405Sup/[ΔOD450Sup+ΔOD405Cell])×125AP−TGFαrelease(%)=AP−TGFαinsupernatantunderastimulatedcondition(%)−AP−TGFαinsupernatantunderavehicle−treatedcondition […]

[7] = system: is-octβ2R I118^3.40A mutant; assay: TGFα shedding assay, mutant I118^3.40A; format: cell-based, Ixodes scapularis; conditions: Table S6
Procedure: as §1, §4

[8] = system: is-octβ2R Y195^5.38A mutant; assay: TGFα shedding assay, mutant Y195^5.38A; format: cell-based, Ixodes scapularis; conditions: Table S6
Procedure: as §1, §4

[9] = system: is-octβ2R W300^6.48A mutant; assay: TGFα shedding assay, mutant W300^6.48A; format: cell-based, Ixodes scapularis; conditions: Table S6
Procedure: as §1, §4

[10] = molecular target: is-octβ2R F304^6.52A mutant (Ixodes scapularis, UniProt A0ACM8E5E8, F304A); assay: TGFα shedding assay, mutant F304^6.52A; format: cell-based; conditions: Table S6
Procedure: as §1, §4

[11] = HEK293, 1 h, Table S2, wild type, HEK293 cells, mean ± SEM, n = 3
[12] = logEC50, Table S2, wild type, HEK293 cells, mean ± SEM, n = 3

SMILES | Emax ([1]; 1 h, Table S4, WT) [%] | Emax ([1]; 1 h, Table S6, WT) [%] | Emax [1, 11] [%] | EC50 ([1]; LogEC50, Table S4, WT) [nM] | EC50 [1, 12] [nM] | EC50 ([1]; logEC50, Table S6, WT) [nM] | potency (EC50) relative to the other TDAs ([1]; wild type, order octopamine > tyramine > noradrenaline > dopamine) | EC50 [2] [nM] | EC50 [3] [nM] | EC50 [4] [nM] | change of EC50 by the Y215^5.58H mutation [5] | reduction of maximal response (Emax) by the Y215^5.58H mutation [5] [%] | logEC50 [6] | logEC50 [7] | logEC50 [8] | logEC50 [9] | EC50 [10] [nM]
NCC(O)c1ccc(O)cc1 (centres unmarked) [Octopamine, octopamine] | 23 ± 0.8 | 27 ± 1.5 | 27 ± 0.7 | 10 | 20 | 25.1 | highest potency | 10 | 7.94 | 15.8 | 4 fold | ~50 | no activity | no activity | no activity | no activity | 398
CN/C=N/c1ccc(C)cc1C [DPMF, N-2,4-dimethylphenyl-N′-methylformamidine] | 21 ± 1 | 25 ± 0.7 | 24 ± 0.6 | 7.94 | 3.98 | – | – | 7.94 | 7.94 | 6.31 | unaffected | ~50 | no activity | no activity | no activity | no activity | 63.1

Source: PMC12696353, “Structural insights into endogenous agonist selectivity of aminergic receptors from the octopamine β2 receptor” (PNAS Nexus, 2025)
